Measured values: patent publication US20260022114A1, “N-(5-SUBSTITUTED-[(1,3,4-THIADIAZOLYL) OR (1,3-THIAZOLYL)](SUBSTITUTED)CARBOXAMIDE COMPOUNDS, PHARMACEUTICAL COMPOSITIONS, AND METHODS OF PREPARING THE AMIDE COMPOUNDS AND OF THEIR USE” (Repare Therapeutics Inc., priority 2022, published 2026)
pIC50: −log10 of the molar value. Each block holds one molecule with its values, some of them ahead of it.

Columns and labels:
PXR nuclear receptor = PXR nuclear receptor (Homo sapiens (Human), UniProt O75469); experiment: PXR activation luciferase reporter assay; assay type: cell-based; conditions: 0.03-10 μM test compound; for PXR activation (% Max activity): percentage of the response of Rifampicin at 10 μM; for fold induction at 24 h: versus vehicle-treated cells, read-out: PXR activation (Max fold induction)
Experimental: An expression vector harboring a full-length PXR nuclear receptor plus the appropriate enhancers and promoters linked to the luciferase reporter gene were integrated into the tumor cells. Tumor cells transfected with the species-specific nuclear receptor and the corresponding response elements were seeded in a 96-well plate. Twenty-four hours after seeding, the cells were treated with six distinct concentrations (0.03-10 μM) of the test compound. The cells were then returned to the incubator for an additional 24 h. After this incubation period, the number of viable cells/well were determined using Promega's Cell Titer Fluor cytotoxicity assay. At the end of the assay, Promega's ONE-Glo was added to assess the receptor activation by monitoring reporter gene activity, and by comparing the results to vehicle-treated cells. Activation data were normalized to the number of viable cells/well. Results are expressed as a percentage of the response given by Rifampicin, the positive control, at a 10 μM dose.

[1] = Liver microsomal stability assay; assay type: in vitro ADME; conditions: pH 7.4; human liver microsomes, 1 μM compound
Experimental: Liver microsomes were thawed on ice prior to use. The incubation mixtures were prepared in 96-well plates and contained test compound or control (1 μM), liver microsomes (0.5 mg of microsomal protein/mL), MgCl2 (5 mM), phosphate buffer (100 mM, pH 7.4), 0.01% DMSO and 1% acetonitrile. A T=0 aliquot was withdrawn after 10 min pre-incubation at 37° C. on a shaker. Reactions were initiated by the addition of NADPH (final concentration of 1 mM) and the plate was kept on a shaker at 37° C., further samples were withdrawn at 5, 15, 30, and 60 minutes. At each timepoint, the reactions were immediately terminated by adding of ice-cold acetonitrile containing internal standard to the withdrawn sample. The extracted samples were centrifuged for 10 minutes at 3200 rpm to pellet the precipitated microsomal protein, and the supernatant was combined 1:1 with water and analyzed by LC-MS/MS. Using the T=0 peak area ratio as 100%, the percentage of parent compound remaining was calculated. For each compound, the In percentage remaining versus incubation time was plotted and the slope of this linear regression (−k) was converted to an in vitro T1/2 value and CLint using the equations below.

CYP3A4 [2] = target: T1, CYP3A4 (Homo sapiens (Human), UniProt P08684); experiment: Time-dependent inhibition (TDI), IC50 shift +/-NADPH, human liver microsomes; assay type: in vitro ADME; conditions: IC50 −NADPH divided by IC50 +NADPH
Experimental: Test compound or positive control inhibitors (CYP2C9: Tienilic acid; CYP2D6: paroxetine; CYP3A4: mifepristone) were dissolved in DMSO and a semi-log dilution (up to 50.0 μM) was prepared to 2 incubation plates and normalized for a final DMSO content of 0.5%. Human liver microsomes were diluted at 1 mg/mL with 100 mM potassium phosphate buffer pH 7.4 (1 mM MgCl2) and added to both incubation plates. After pre-incubation at 37° C., the reaction was started with the addition of NADPH (+NADPH condition) or with water (−NADPH condition). Plates were incubated for 30 min and 8 μL were transferred to a second incubation plate containing 72 μL of 1 mM NADPH, 20 μM diclofenac (CYP2C9), 20 μM dextromethorphan (CYP2D6) and 10 μM midazolam (CYP3A4) in 100 mM potassium phosphate buffer pH 7.4 (1 mM MgCl2). Plates were incubated for 10 min and the reaction was stopped by the addition of cold acetonitrile containing internal standard (1:1 v/v). […] Metabolite area ratio (4-OH-diclofenac, dextrorphan and 1-OH-midazolam) versus internal standard area ratio was used as the quantitative signal. Data were analyzed using the plot log of concentration (x axis) versus the percentage of inhibition (y axis) and IC50. Hill Slope and R^2 were determined. The IC50 shift was then calculated by dividing the IC50-NADPH condition by the IC50 obtained in the +NADPH condition.

[3] = target: PolQ ATPase enzyme (1-894) (Homo sapiens (Human), UniProt O75417); experiment: Polθ ATPase enzymatic assay (0.5 nM enzyme concentration), ADP-Glo; assay type: biochemical; conditions: 0.5 nM PolQ ATPase enzyme (1-894); average IC50
Summary of the method: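 Human PolQ ATPase domain (1-894), 0.5 nM, preincubated 15 min at rt with 10-point inhibitor series in 50 mM Tris pH 7.5, 10% glycerol, 5 mM DTT, 10 mM MgCl2, 0.1 mg/ml BSA.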

CYP3A4 [4] = target: T1, CYP3A4; experiment: Reversible CYP inhibition in human liver microsomes (midazolam); assay type: in vitro ADME
Experimental: A seven-point semi-log dilution of each test compound (up to 30 μM) or positive control inhibitors for CYP2C9 (up to 1000 nM sulphenazole), CYP2D6 (up to 500 nM quinidine) and CYP3A4 (up to 250 nM ketoconazole) were dissolved in DMSO and added to the incubation plate using a Tecan 300 (normalized for 0.3% DMSO content). Final reaction conditions were: human liver microsomes (0.1 mg/mL), potassium phosphate buffer 100 mM pH 7.4, 1 mM magnesium chloride, 5 μM diclofenac, 5 μM dextromethorphan and 2.5 μM midazolam. After a pre-incubation at 37° C. The reaction was started with the addition of NADPH solution at the final concentration of 1 mM and carried out at 37° C. for 5 minutes. The reaction was stopped by the addition of 1 volume of cold acetonitrile with internal standard (labetalol) to the incubation plate. The incubation plate was centrifuged at 3000 rpm for 10 minutes to precipitate proteins, and the supernatant was analyzed by LC-MS/MS. Metabolite area ratio (4-OH-diclofenac, dextrorphan and 1-OH-midazolam) versus ISTD area ratio was used as the quantitative signal. Data were analyzed using the plot log of concentration (x-axis) versus the percentage of inhibition (y axis) and the IC50, Hill Slope and R^2 were determined.

Sequence of PolQ ATPase enzyme (1-894) (O75417 1-894): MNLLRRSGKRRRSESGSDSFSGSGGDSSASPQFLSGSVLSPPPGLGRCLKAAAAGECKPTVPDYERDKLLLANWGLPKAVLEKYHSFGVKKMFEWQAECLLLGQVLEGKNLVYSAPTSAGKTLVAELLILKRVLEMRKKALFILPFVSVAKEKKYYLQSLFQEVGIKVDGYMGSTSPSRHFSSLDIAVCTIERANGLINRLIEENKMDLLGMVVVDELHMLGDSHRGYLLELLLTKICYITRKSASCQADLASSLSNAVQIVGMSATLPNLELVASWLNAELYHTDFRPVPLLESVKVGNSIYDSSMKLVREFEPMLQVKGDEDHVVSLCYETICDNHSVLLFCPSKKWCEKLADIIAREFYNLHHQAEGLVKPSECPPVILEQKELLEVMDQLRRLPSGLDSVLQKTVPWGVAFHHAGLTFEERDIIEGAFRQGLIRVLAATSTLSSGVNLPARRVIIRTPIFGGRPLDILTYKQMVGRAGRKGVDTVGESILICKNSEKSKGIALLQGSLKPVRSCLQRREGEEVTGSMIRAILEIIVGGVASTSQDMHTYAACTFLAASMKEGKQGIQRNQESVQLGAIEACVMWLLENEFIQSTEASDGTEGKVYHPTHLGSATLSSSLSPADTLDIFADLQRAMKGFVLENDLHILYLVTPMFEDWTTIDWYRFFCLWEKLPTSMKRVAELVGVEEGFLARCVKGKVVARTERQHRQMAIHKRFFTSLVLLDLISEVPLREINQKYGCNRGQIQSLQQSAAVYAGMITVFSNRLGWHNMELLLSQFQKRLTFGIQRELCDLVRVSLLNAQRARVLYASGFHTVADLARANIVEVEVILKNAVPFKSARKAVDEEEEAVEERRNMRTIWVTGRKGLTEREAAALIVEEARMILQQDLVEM
T1 sequence (P08684 whole entry): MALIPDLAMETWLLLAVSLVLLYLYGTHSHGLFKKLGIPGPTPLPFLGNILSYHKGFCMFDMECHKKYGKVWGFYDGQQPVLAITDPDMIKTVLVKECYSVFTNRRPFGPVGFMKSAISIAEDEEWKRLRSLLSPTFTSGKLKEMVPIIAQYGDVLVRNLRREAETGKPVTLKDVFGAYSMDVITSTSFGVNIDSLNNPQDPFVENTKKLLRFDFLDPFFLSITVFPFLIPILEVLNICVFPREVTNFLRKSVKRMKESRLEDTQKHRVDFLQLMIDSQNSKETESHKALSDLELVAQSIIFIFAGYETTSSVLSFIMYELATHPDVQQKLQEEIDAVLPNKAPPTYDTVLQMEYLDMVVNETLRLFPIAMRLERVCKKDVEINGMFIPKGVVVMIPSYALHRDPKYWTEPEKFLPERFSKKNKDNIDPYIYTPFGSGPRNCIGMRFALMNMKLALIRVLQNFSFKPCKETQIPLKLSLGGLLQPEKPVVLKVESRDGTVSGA
Sequence of PXR nuclear receptor (O75469 whole entry): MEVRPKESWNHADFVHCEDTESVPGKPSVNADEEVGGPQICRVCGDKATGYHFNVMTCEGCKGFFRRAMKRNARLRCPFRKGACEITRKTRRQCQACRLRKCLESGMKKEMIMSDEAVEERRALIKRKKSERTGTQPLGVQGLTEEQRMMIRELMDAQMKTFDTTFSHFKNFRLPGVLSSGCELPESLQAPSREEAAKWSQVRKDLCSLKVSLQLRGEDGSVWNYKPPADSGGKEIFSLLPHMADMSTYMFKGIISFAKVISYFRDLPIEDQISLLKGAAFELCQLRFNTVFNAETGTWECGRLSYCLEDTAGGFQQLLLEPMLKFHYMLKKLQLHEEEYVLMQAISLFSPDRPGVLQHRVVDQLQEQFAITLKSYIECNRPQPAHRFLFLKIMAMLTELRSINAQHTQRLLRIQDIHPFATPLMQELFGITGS

Structure (SMILES): COc1ccc(F)cc1-c1cnccc1C(=O)Nc1nnc(C#Cc2ccc(C#N)cc2)s1 [Compound 473]
PXR activation (% Max activity) (PXR nuclear receptor): 2.0%
fold induction at 24 h (PXR nuclear receptor): 1.3
microsomal CLint at 1 μM [1]: 46.4 µL/min/mg
Time-dependent CYP3A4 inhibition-shift after 30 min with NADPH (CYP3A4 [2]): 1x
IC50 [3]: 3.5 nM
pIC50 (CYP3A4 [4]): 5.95

Structure (SMILES): COc1cnc(Cl)cc1-c1cnccc1C(=O)Nc1nnc(C#CC2CC2)s1
PXR activation (% Max activity) (PXR nuclear receptor): 5.0%
fold induction at 24 h (PXR nuclear receptor): 1.8
microsomal CLint at 1 μM [1]: < 7.7 µL/min/mg
Time-dependent CYP3A4 inhibition-shift after 30 min with NADPH (CYP3A4 [2]): 1x
pIC50 (CYP3A4 [4]): < 4.52

Structure (SMILES): COc1cnc(C(F)F)cc1-c1cc(C#CCN2CC[S+]([O-])CC2)ncc1C(=O)Nc1nnc(C#CC2CC2)s1 [Compound 596]
IC50 [3]: 0.45 nM

Structure (SMILES): C#C[C@H]1C[C@@H]1c1nnc(NC(=O)c2cnc(-n3ccc(N4CCN(C)CC4)cc3=O)cc2-c2cc(C(F)F)ncc2OC)s1 [Compound 548]
IC50 [3]: 0.79 nM

Structure (SMILES): COc1cnc(C(F)F)cc1-c1cc(Oc2cc(N3CCOCC3)ccn2)ncc1C(=O)Nc1nnc(C#CC2CC2)s1 [Compound 526]
IC50 [3]: 1.5 nM

Structure (SMILES): COc1cnc(C(F)F)cc1-c1cc(C#CCN2CCCC2=O)ncc1C(=O)Nc1nnc(C#CC2CC2)s1 [Compound 550]
IC50 [3]: < 0.25 nM

Structure (SMILES): COc1cnc(C(F)F)cc1-c1cc(-n2ccc(C)cc2=O)ncc1C(=O)Nc1nnc([C@H]2C[C@@H]2c2ccc(C#N)cc2)s1 [Compound 563]
IC50 [3]: < 0.25 nM

Structure (SMILES): COc1cnc(C(F)F)cc1-c1cc(-n2ccc(C)cc2=O)ncc1C(=O)Nc1nnc([C@H]2C[C@@H]2c2ccn(C)n2)s1 (racemic) [Compound 583, 2″-(difluoromethyl)-5″-methoxy-4-methyl-N-(5-((1S,2S)-2-(1-methyl-1H-pyrazol-3-yl)cyclopropyl)-1,3,4-thiadiazol-2-yl)-2-oxo-2H-[1,2′:4′,4″-terpyridine]-5′-carboxamide]
IC50 [3]: < 0.25 nM

The remaining lines, values ahead:

IC50 [3]: 0.79 nM
Structure (SMILES): COc1cnc(C(F)F)cc1-c1cc(-n2cccc(Cl)c2=O)ncc1C(=O)Nc1nnc([C@H]2C[C@@H]2C)s1 [Compound 608]

IC50 [3]: < 0.25 nM
Structure (SMILES): COc1cnc(C(F)F)cc1-c1cc(-c2cccn(C)c2=O)ncc1C(=O)Nc1nnc(C#CC2CC2)s1 [Compound 483]

IC50 [3]: < 0.25 nM
Structure (SMILES): COc1cnc(C(F)F)cc1-c1cc(C#CCN2CCCC2=O)ncc1C(=O)Nc1nnc([C@H]2C[C@@H]2c2cscn2)s1 (racemic) [Compound 641]

IC50 [3]: 0.85 nM
Structure (SMILES): COc1cnc(C(F)F)cc1-c1cc(-n2ccc(OC3CCN(C)C3)cc2=O)ncc1C(=O)Nc1nnc(C#CC2CC2)s1 (racemic) [Compound 612]
